Experimental data as given in patent US4678666A, “Topical anti-inflammatory compositions” (Pfizer Inc., priority 1982, dated 1987).
Entries after “also recorded” stand apart in the source; their conditions may differ. Where two headings read alike, the source gives them in different places.

Tests used:
[1] = Solubility of Piroxicam with solubilizers; assay type: physicochemical
Source text: This invention employs a solubilizing agent to dissolve piroxicam in bases for formulation; the piroxicam-solubilizing agent is selected from the class of alkanolamines. […] The monoalkanolamines have from one to four carbon atoms and include methanolamine, ethanolamine, propanolamine and butanolamine. The dialkanolamines have from two to eight carbon atoms and include dimethanolamine, diethanolamine, dipropanolamine and dibutanolamine. The trialkanolamines have from three to twelve carbon atoms and include trimethanolamine, triethanolamine, tripropanolamine and tributanolamine.

[2] = tested on: carragenin-induced foot edema; assay: Carragenin-induced rat foot edema test; assay type: in vivo; conditions: oral administration, 1 mg./kg.
Protocol: The anti-inflammatory activity of the compositions of this invention was determined using the standard carragenin-induced rat foot edema test. [C. A. Winter et al., Proceedings of the Society for Experimental Biology and Medicine, Vol. 111, p. 544 (1962)]. Piroxicam ointment (1%), prepared according to Example 10, was administered topically at a dose level of 100 mg. per rat. The results obtained are presented in the table below (Table 6) in terms of the percent inhibition of edema formation, as compared to the non-drug treated control and the oral administration of piroxicam (1 mg./kg.): […]

[3] = words, background; cited from earlier work
[4] = At a higher pH than 9.0; cited from earlier work
[5] = cited from earlier work

Structure (SMILES)	Solubility of Piroxicam ([1]; Ammonia 10%, solvent: water)	Solubility of Piroxicam ([1]; Control (none), no solubilizer, solvent: water)	Solubility of Piroxicam ([1]; Di-isopropanolamine 10%, solvent: water)	Solubility of Piroxicam ([1]; Di-isopropyl adipate 10%, solvent: 1:1 water-ethanol)	Solubility of Piroxicam ([1]; Diethanolamine 10%, solvent: water)	Solubility of Piroxicam ([1]; Diethyl sebacate 10%, solvent: 1:1 water-ethanol)	Solubility of Piroxicam ([1]; Ethanolamine 10%, solvent: water)	Solubility of Piroxicam ([1]; Isopropyl myristate 10%, solvent: 1:1 water-ethanol)	Solubility of Piroxicam ([1]; N-Ethyl-o-crotonotoluidide 10%, solvent: 1:1 water-ethanol)	% Inhibition of edema [2]	Liposolubility [3]	Solubility in water [3]	Chemical stability [4]	Absorption through skin ([5]; compounded in suspension with conventional bases for ointment or cream)	Absorption through skin ([5]; tincture, dissolved in an alcoholic solvent such as ethanol)	Solubility relative to piroxicam [3]
CN1C(C(=O)Nc2ccccn2)=C(O)c2ccccc2S1(=O)=O [Piroxicam, N-(2-pyridyl)-2-methyl-4-hydroxy-2H-1,2-benzothiazine-3-carboxamide 1,1-dioxide]	60.0 mg/g	0.01 mg/g	195 mg/g	1.2 mg/g	204 mg/g	2.0 mg/g	392 mg/g	0.4 mg/g	1.8 mg/g	39.6%	not liposoluble	sparingly soluble in water; also recorded: sparingly soluble in water or any other solvent	chemically unstable and may even decompose or deteriorate in quality	poorly absorbed through skin	will not be absorbed through the skin	
CN1C(C(=O)Nc2ccccn2)=C(O)c2ccccc2S1(=O)=O [hydrate]																less soluble than piroxicam itself
